pEC50: −log10 of the molar value. Values after ≈ are worked out from the molar mass of the structure shown.
Legend:
MDA-MB-435 cells [1] = assay: DNA synthesis arrest by 3H-uptake (Example 8); format: cell-based, human; details: Homo sapiens; MDA-MB-435; 2% serum; 3H-uptake at one day treatment
Method: (§1) MDA-MB-435 and MCF-7 cells at 1.5×10^5/well in 12 well plates for apoptosis and 1.5×10^4/well in 96 well plates for DNA synthesis arrest were incubated overnight in culture media and treated with α-tocopherol, α-tocotrinel, compound 1, 6-0-carboxymethyl alpha-tocotrienol (6-0-CM-α-T, 44), and vitamin E succinate (VES) at different concentrations in experimental media (2% serum for MDA-MB-435 cells and 5% serum for MCF-7 cells). DNA synthesis arrest was determined by ^3H-uptake at one day treatment and apoptosis was detected by DAPI staining at three day treatment. EC50 was calculated as the dosage of test compounds that gave 50% growth inhibition.

[2] = system: Fas/Fas ligand signaling pathway; assay: Fas/Fas ligand apoptotic signaling in Fas resistant tumor cells; format: cell-based, human
Source text: Activated Fas/Fas ligand signaling may lead to rapid cell death by apoptosis. Thus, for tumor cells to escape death by Fas/Fas ligand, they must inactivate this most important apoptotic pathway. The mechanism for inactivation of the Fas/Fas ligand signaling pathway by tumor cells varies; however, many tumor cells down regulate the expression of Fas receptor and Fas ligand on their membranes.

[3] = Solubility in ethanol (stock solution); format: physicochemical; details: in 5 mls of 100% ethanol, vortex at 37° C.
Source text: This is the maximum amount of compound 1 that will go into solution.

[4] = system: Fas ligand on the membrane of LNCaP prostate cells; assay: Fas ligand expression on cell membrane; format: cell-based
MCF-7 cells = assay: Apoptosis by DAPI staining (Example 8); format: cell-based, human; details: Homo sapiens, MCF7, 72 h, 5% serum, DAPI staining at three day treatment
Method: as §1

MDA-MB-435 cells [5] = assay: Apoptosis by DAPI staining (Example 8); format: cell-based, human; details: Homo sapiens, 72 h; MDA-MB-435; 2% serum; DAPI staining at three day treatment
Method: as §1

[6] = Method: Prior to conducting the preclinical chemotherapeutic studies, compound 1 is assayed in non-tumor Balb/c female mice in an effort to establish the maximum tolerated dose. Compound 1 is dissolved in 100% ethanol to establish a stock solution (2 grams of compound 1 in 5 mls of 100% ethanol) and diluted in peanut oil (non vitamin E supplemented) to yield 20, 10, and 5 mg/0.1 ml. RRR-α-tocopherol succinate (VES; the succinate moiety is attached to RRR-α-tocopherol via an ester linkage) was solubilized and diluted as described above to yield 20 mg/0.1 ml/gavage, serving as an additional control. A total of 30 Balb/c female mice were placed into 6 groups (5 mice/group) and supplemented by gavage with compound 1 daily for a total of 23 days. Group 1 mice were non treated and served a s control; group 2 mice were the vehicle control group and received 0.1 ml of vehicle (ethanol+peanut oil equivalent to treatment groups)/mouse/day for a total of 23 days, […] of VES daily for a total of 23 days. Treatment groups […] were gavaged daily for 23 days with 5, 10, and 20 mgs of compound 1.
[7] = system: human cancer cells from a wide variety of cell lineages; assay: Apoptosis induction in a battery of tumor cells; format: cell-based; details: breast, prostate, leukemia/lymphoid, cervical, ovarian, endometrial, colon, lung cell lines
Method: Cells were cultured at 1.5×10^5 cells/well in 12 well plates. Cells were allowed to adhere overnight, then incubated with novel test compounds at 0.01, 0.1, 1, 5, 10 & 20 μg/mL for 1, 2 and 3 days. After treatment, cells (floating+trypsin released adherent cells) were pelleted, washed and stained with 2 μg/ml DAPI (4′,6-diamidine-2′-phenylindole dihydrochloride) in 100% methanol for 15 minutes at 37° C. and/or 3′-OH ends resulting from DNA fragmentation were detected with the TUNEL (terminal deoxynucleotidyl transferase-mediated dUTP-X 3′ nick end-labeling) technique, and then viewed using a Zeiss ICM 405 microscope. Cells whose nucleus contained clearly condensed or fragmented chromatin or stained for fragmented DNA in the TUNEL assay were scored as apoptotic. Data are presented as percent cells undergoing apoptosis.

PREC = assay: Bioassay for apoptosis (apoptotic EC50); format: cell-based; details: Homo sapiens, unit inferred
Method in brief: (§2)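 Cells seeded at 1.5×10^5/well, adhered overnight, then exposed to compounds at 0.01–20 μg/mL for 1, 2 and 3 days. Floating plus trypsinised cells were stained with 2 μg/ml DAPI in methanol (15 min, 37° C) and/or TUNEL, and scored microscopically as percent apoptotic cells.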

HMEC = assay: Bioassay for apoptosis (apoptotic EC50); format: cell-based; details: Homo sapiens, unit inferred
Method in brief: as §2

T47D = assay: Bioassay for apoptosis (apoptotic EC50); format: cell-based; details: Homo sapiens, unit inferred
Method in brief: as §2

MCF-10A = assay: Bioassay for apoptosis (apoptotic EC50); format: cell-based; details: Homo sapiens, unit inferred
Method in brief: (§3)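 Both floating and trypsin-released adherent cells are collected after compound treatment at six concentrations from 0.01 to 20 μg/mL over up to 3 days. Nuclei are stained with DAPI at 37° C and/or TUNEL-labelled; the fraction with apoptotic morphology is scored.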

PC-3 = assay: Bioassay for apoptosis (apoptotic EC50); format: cell-based, human; details: PC-3; unit not given; in µg/mL
Method in brief: as §3

HT-29 = assay: Bioassay for apoptosis (apoptotic EC50); format: cell-based, human; details: Homo sapiens, unit inferred
Method in brief: as §2

DLD-1 = assay: Bioassay for apoptosis (apoptotic EC50); format: cell-based, human; details: Homo sapiens, unit inferred
Method in brief: as §2

MCF-7 = assay: Bioassay for apoptosis (apoptotic EC50); format: cell-based, human; details: MCF-7; unit not given; in µg/mL
Method in brief: as §3

LnCaP = assay: Bioassay for apoptosis (apoptotic EC50); format: cell-based, human; details: Homo sapiens, unit inferred
Method in brief: as §3

ME-180 = assay: Bioassay for apoptosis (apoptotic EC50); format: cell-based, human; details: ME-180; unit not given; in µg/mL
Method in brief: as §3

RL-95-2 = assay: Bioassay for apoptosis (apoptotic EC50); format: cell-based, human; details: Homo sapiens, RL95-2, RL-95-2; unit inferred
Method in brief: as §3

MDA-MB-231 = assay: Bioassay for apoptosis (apoptotic EC50); format: cell-based, human; details: MDA-MB-231; unit not given; in µg/mL
Method in brief: as §3

C-170 = assay: Bioassay for apoptosis (apoptotic EC50); format: cell-based, human; details: Homo sapiens, C170, C-170; unit inferred
Method in brief: as §3

HL-60 = assay: Bioassay for apoptosis (apoptotic EC50); format: cell-based, human; details: HL-60; unit not given; in µg/mL
Method in brief: as §3

MDA-MB-435 = assay: Bioassay for apoptosis (apoptotic EC50); format: cell-based, human; details: MDA-MB-435; unit not given; in µg/mL
Method in brief: as §3

DU-145 = assay: Bioassay for apoptosis (apoptotic EC50); format: cell-based, human; details: Homo sapiens, unit inferred
Method in brief: as §2

A-549 = assay: Bioassay for apoptosis (apoptotic EC50); format: cell-based, human; details: Homo sapiens, A549, unit inferred
Method in brief: as §2

Jurkat = assay: Bioassay for apoptosis (apoptotic EC50); format: cell-based, human; details: Homo sapiens, unit inferred
Method in brief: as §2

For `Cc1c(C)c2c(c(C)c1OCC(=O)O)CC[C@@](C)(CCC[C@H](C)CCC[C@H](C)CCCC(C)C)O2` [Compound 1, 2,5,7,8-tetramethyl-(2R-(4R,8R,12-trimethyltridecyl)chroman-6-yloxy)acetic acid], the pEC50 (MDA-MB-435 cells [1]) was 4.82, the Fas receptor localisation ([2]; Fas signaling resistant human breast cancer cells) was “transported from the cytoplasm to the membrane” and the “Fas/Fas ligand sensitivity of resistant tumor cells” value ([2]; Fas/Fas ligand resistant tumor cells) was “induce Fas/Fas ligand resistant tumor cells to become Fas/Fas ligand sensitive”. For the same compound, the “anti-Fas triggered apoptosis, co-treatment” value ([2]; human breast and prostate cancer cells, co-treated versus separately) was “synergistic”, the “maximum amount that will go into solution” value [3] was 2 grams and the “expression of Fas ligand on the membrane” value [4] was “enhance the expression of Fas ligand”. The pEC50 (MCF-7 cells) was 4.44, the pEC50 (MDA-MB-435 cells [5]) was 4.52 and the toxicity upon autopsy ([6]; at completion of the MTD studies) was “no evidence of toxicity”. For the same compound, the “weights of the mice versus VES treated, untreated and vehicle treated controls” value ([6]; mouse, in vivo) was “no significant difference”, the “growth inhibitory (apoptotic inducing) properties specific for human cancer cells” value [7] was “effective” and the EC50 (PREC) was > 20 µg/mL. For the same compound, the EC50 (HMEC) was > 20 µg/mL, the EC50 (T47D) was > 20 µg/mL and the EC50 (MCF-10A) was > 20 µg/mL. The “apoptotic EC50” value (PC-3) was 5-10, the EC50 (HT-29) was 10 to 20 µg/mL (≈ 20.5 to 40.9 µM) and the EC50 (DLD-1) was 10 to 20 µg/mL (≈ 20.5 to 40.9 µM). For the same compound, the “apoptotic EC50” value (MCF-7) was 5-10, the EC50 (LnCaP) was 5 to 10 µg/mL (≈ 10.2 to 20.5 µM) and the “apoptotic EC50” value (ME-180) was 1-5. The EC50 (RL-95-2) was 10 to 20 µg/mL (≈ 20.5 to 40.9 µM), the “apoptotic EC50” value (MDA-MB-231) was 5-10 and the EC50 (C-170) was 10 to 20 µg/mL (≈ 20.5 to 40.9 µM). For the same compound, the “apoptotic EC50” value (HL-60) was 5-10, the “apoptotic EC50” value (MDA-MB-435) was 5-10 and the EC50 (DU-145) was 5 to 10 µg/mL (≈ 10.2 to 20.5 µM). For the same compound, the EC50 (A-549) was 10 to 20 µg/mL (≈ 20.5 to 40.9 µM) and the EC50 (Jurkat) was 10 to 20 µg/mL (≈ 20.5 to 40.9 µM).
